ChEMBL document CHEMBL5113549, “Binding versus Enzymatic Processing of ε-Trimethyllysine Dioxygenase Substrate Analogues” (ACS Med Chem Lett, 2022)
Calls of active or inactive are those of the source. The rule behind the calls is not given here.

Legend:
Homo sapiens [1] = species: Homo sapiens; test: Substrate activity at human recombinant MBP-TMLD (42 to 421 residues) fusion protein expressed in Escherichia coli BL21-AI assessed as ratio of succinate to hydroxylated substrate formation at 500 uM in presence of alpha-ketoglutarate by proton 1D NMR spectroscopy
Homo sapiens [2] = species: Homo sapiens; test: Substrate activity at human recombinant MBP-TMLD (42 to 421 residues) fusion protein expressed in Escherichia coli BL21-AI assessed as hydroxylated substrate formation at 500 uM in presence of alpha-ketoglutarate by proton 1D NMR spectroscopy
Homo sapiens [3] = species: Homo sapiens; test: Binding affinity to human recombinant MBP-TMLD (42 to 421 residues) fusion protein expressed in Escherichia coli BL21-AI assessed as change in Gibbs free energy by isothermal titration calorimetry
Homo sapiens [4] = species: Homo sapiens; test: Binding affinity to human recombinant MBP-TMLD (42 to 421 residues) fusion protein expressed in Escherichia coli BL21-AI assessed as change in enthalpy by isothermal titration calorimetry
[5] = Binding affinity to human recombinant MBP-TMLD (42 to 421 residues) fusion protein expressed in Escherichia coli BL21-AI by isothermal titration calorimetry
Homo sapiens [6] = species: Homo sapiens; test: Binding affinity to human recombinant MBP-TMLD (42 to 421 residues) fusion protein expressed in Escherichia coli BL21-AI assessed as change in entropy by isothermal titration calorimetry
Homo sapiens [7] = species: Homo sapiens; test: Binding affinity to human recombinant MBP-TMLD (42 to 421 residues) fusion protein expressed in Escherichia coli BL21-AI assessed as heat release at 300 uM in presence of co-factor alpha-ketoglutarate and Zn2+ by isothermal titration calorimetry
Homo sapiens [8] = species: Homo sapiens; test: Binding affinity to human recombinant MBP-TMLD (42 to 421 residues) fusion protein expressed in Escherichia coli BL21-AI assessed as heat release at 300 uM in presence of co-factor OGA and Co2+ by isothermal titration calorimetry
Homo sapiens [9] = species: Homo sapiens; test: Binding affinity to human recombinant MBP-TMLD (42 to 421 residues) fusion protein expressed in Escherichia coli BL21-AI assessed as heat release at 300 uM in presence of co-factor OGA and Zn2+ by isothermal titration calorimetry
Homo sapiens [10] = species: Homo sapiens; test: Binding affinity to human recombinant MBP-TMLD (42 to 421 residues) fusion protein expressed in Escherichia coli BL21-AI in presence of 1.18 to 2 fold excess of co-factor Zn2+/OGA by isothermal titration calorimetry

Row | Compound | Ratio (Homo sapiens [1]) | Activity (Homo sapiens [2]) | deltaG (Homo sapiens [3]) | deltaH (Homo sapiens [4]) | Kd [5] | -TdeltaS (Homo sapiens [6]) | Activity (Homo sapiens [7]) | Activity (Homo sapiens [8]) | Activity (Homo sapiens [9]) | Activity (Homo sapiens [10])
1 | CC(C)C(=O)N[C@@H](CCCC[N+](C)(C)C)C(=O)[O-] | 3.9 | 12% |  |  |  |  |  |  |  | 
2 | CCC[N+](C)(C)CCCC[C@H](N)C(=O)O | 3.4 | 25% | -6.9 kcal/mol | -1.4 kcal/mol | 9.2 µM | -5.5 kcal/mol |  |  |  | 
3 | CC(C)[N+](C)(C)CCCC[C@H](N)C(=O)O | 2.4 | 51% | -6.75 kcal/mol | -5.6 kcal/mol | 11.3 µM | -1.2 kcal/mol |  |  |  | 
4 | C[N+](C)(C)CCCCC[C@H](N)C(=O)O | 2.9 | 30% | -6.28 kcal/mol | -1.4 kcal/mol | 25 µM | -4.9 kcal/mol |  |  |  | 
5 | CCCC[N+](C)(C)CCCC[C@H](N)C(=O)[O-] | 2.4 | 39% | -6.52 kcal/mol | -0.6 kcal/mol | 16.4 µM | -5.9 kcal/mol |  |  |  | 
6 | C[N+](C)(C)CCC[C@H](N)C(=O)O | 3.1 | 28% | -6.9 kcal/mol | -4.5 kcal/mol | 7.6 µM | -2.5 kcal/mol |  |  |  | 
7 | CC[N+](C)(C)CCCC[C@H](N)C(=O)O | 2.1 | 83% | -7.12 kcal/mol | -6.37 kcal/mol | 6 µM | -0.75 kcal/mol |  |  |  | 
8 | C[N+](C)(C)CCCC[C@H](N)C(=O)O | 1.3 | 97% | -7.15 kcal/mol | -5.48 kcal/mol | 5.78 µM | -1.66 kcal/mol | Active | Active | Active | Active
